The text below walks through data of the OPERA property sets (Mansouri et al. 2018).

Where a SMILES comes first, the peptide text is derived from it.

One may read the logP as the decadic logarithm of the partition coefficient of the neutral form, usually between octanol and water. A low value points to a more hydrophilic compound. In the case of `CCCCNC(C)CO` (stereo unspecified), the logP was 1.19.

For `Cc1cc2c(nc1N)[nH]c1ccccc12`, the logP worked out at 2.9.

Take `CN(C)CCOc1cccc(Cl)c1`: the logP stood at 2.82.

`CCN(CCO)CCCOc1cc2ncnc(Nc3cc(CC(=O)Nc4cccc(F)c4)[nH]n3)c2cc1OC` came in with a logP of 3.7.

`COC(=O)C(C)NP(=O)(OCC1C=CC(n2cc(C)c(=O)[nH]c2=O)O1)Oc1ccccc1` (stereo unspecified) yielded a logP of 1.04.

Turning to `CCC(C)C(N)C(=O)NC(C(=O)NCC(=O)NC(Cc1ccccc1)C(=O)O)C(C)CC` (stereo unspecified) (H-IIGF-OH; configuration not given here), the logP was -0.99.

On to `CCCCCCCOC(C)=O`, for which the logP is 3.46.

In the case of `CC(C)NC(=O)Cn1cccc(O)c1=O`, the logP is -0.34.

The molecule `Cc1oc2ccc3ccc(=O)oc3c2c1C` showed a logP of 2.97.

Turning to `Cc1cccc(N2CC(N3CCOCC3)=CC2=O)c1`, the logP was 1.5.

The molecule `CSCC[C@H](N)C(=O)N1CCC[C@H]1C(=O)O` (H-Met-Pro-OH) registered a logP of -2.52.

With `CC1(C)Oc2ccc(C#N)cc2C(N2CCCC2=O)C1O` (stereo unspecified), the logP was determined as 2.32.

On to `CCC(C)C(NC(=O)C(CC(C)C)NC(=O)C(N)CO)C(=O)O` (stereo not drawn) (H-Ser-Leu-Ile-OH; configuration not given here), for which the logP was -1.99.

Turning to `CC(C)(O)C1CCC2(C)CCC3(CO3)C2C1` (stereo unspecified), the logP worked out at 2.9.

The molecule `Cc1cc2c(o1)c(C)cc1c(C)cc(=O)n(C)c12` registered a lipophilicity (logP) of 3.43.

For `Cc1ccc(OCC2CN=C(N)O2)cc1C` (stereo unspecified), the logP was determined as 2.1.

Molecule `Nc1cccc(Nc2ccccc2C(=O)O)c1` displayed a logP of 2.99.

The molecule `COC(=O)c1c(Oc2nc(OC)cc(OC)n2)cccc1C(C)=NOCC(F)(F)F` gave a logP of 3.39.

As to `CC(CO)CNc1[nH]cnc2ncnc1-2` (stereo unspecified), the logP came out at 0.61.

For the molecule `NC(Cc1ccccc1)C(=O)NC(Cc1ccccc1)C(=O)NC(Cc1ccccc1)C(=O)NC(Cc1ccccc1)C(=O)O` (stereo unspecified) (H-FFFF-OH; configuration not given here), the logP is 1.63.

The molecule `CC(C)NCC(O)CN1C(=O)COc2ccccc21` (stereo unspecified) showed a logP of 1.45.

`CCOCCCNc1ncnc2c1ncn2C1OC(CO)C(O)C1O` (stereo unspecified) showed a logP of 0.22.

Molecule `CCCc1cccc(CNc2[nH]cnc3ncnc2-3)c1` came in with a logP of 3.53.

Turning to `CN1CCN(C2=NC(=O)N(c3ccc(Cl)cc3)C2)CC1`, the logP amounted to 2.2.

With `CCSSc1ncc[nH]1`, the logP turned out to be 2.13. The logP values of the last two molecules are within 0.2 log units of each other.

For `NC(=O)c1cccc(Cn2cccn2)c1`, the logP was 0.71.

Regarding `O=C1N=C(N2CCOCC2)CN1c1ccc(Cl)cc1`, the logP was 1.5.

`CN(C)CCc1ccccc1` gave a logP of 2.38.

`CC(=NNC(=S)N(C)C)c1cc(C)ccc1O` returned a logP of 2.26. This logP and that of the molecule before are within 0.2 log units of each other.

Molecule `CC(C)(C)OC(=O)NC(Cc1c[nH]c2ccccc12)C(=O)O` (stereo unspecified) came in with a logP of 2.65.

As for `CC(C)NC(=S)NS(=O)(=O)c1cnccc1NC1CCCCCC1`, the logP was 3.86.

Molecule `c1ccc(CSSc2ncc[nH]2)cc1` came in with a logP of 3.05.

As to `CCOC(=O)CCCn1cc([N+](=O)[O-])nc1C`, the logP was found to be 0.58.

On to `CCOc1cc2ncnc(Nc3ccccc3F)c2cc1OCC`, for which the logP is 3.02.

`COCOc1ccc(Cc2cccc(-c3c(O)c4ccc(Cl)cc4[nH]c3=O)c2)cc1` registered a lipophilicity (logP) of 5.24.

In turn, `CCCC(=O)OC1Cc2c(O)cc(O)cc2OC1c1ccc(O)c(O)c1` (stereo unspecified) displayed a logP of 2.47.

In turn, `Cc1c(O)c(=O)ccn1CCCOC(=O)c1ccccc1` had a logP of 1.25.

With `CC(=O)O[C@H]1[C@@H](O)C[C@H](O[C@H]2[C@@H](O)C[C@H](O[C@H]3[C@@H](O)C[C@H](O[C@H]4CC[C@@]5(C)[C@H](CC[C@@H]6[C@@H]5C[C@@H](O)[C@]5(C)[C@@H](C7=CC(=O)OC7)CC[C@]65O)C4)O[C@@H]3C)O[C@@H]2C)O[C@@H]1C`, the logP was determined as 2.

`CCC1(C(=O)NC(C)c2ccc(Cl)cc2)C(C)C1(Cl)Cl` (stereo unspecified): the logP was 4.23.

`CSc1ncc([N+](=O)[O-])n1C` displayed a logP of 0.94.

Consider `CCCC(=NOCC)C1=C(O)CC2(CCCC3CCCCC32)OC1=O` (stereo unspecified), for which the logP was found to be 5.
